Laboratory results taken from patent publication US12233047B2, “Pharmaceutical combination and use thereof” (ASCENTAGE PHARMA (SUZHOU) CO., LTD., priority 2019, dated 2025).
Numbering of substitutions follows the chain as printed.

Legend:
FLT3 (D835Y) = target: T1, FLT3 (D835Y) (Homo sapiens, UniProt P36888, D835Y); experiment: KINOMEscan kinase binding assay, FLT3 (D835Y)
T1 construct: host or cells: T7 phage in E. coli (BL21-derived) or HEK-293
T1 sequence (P36888 27-993 D835Y): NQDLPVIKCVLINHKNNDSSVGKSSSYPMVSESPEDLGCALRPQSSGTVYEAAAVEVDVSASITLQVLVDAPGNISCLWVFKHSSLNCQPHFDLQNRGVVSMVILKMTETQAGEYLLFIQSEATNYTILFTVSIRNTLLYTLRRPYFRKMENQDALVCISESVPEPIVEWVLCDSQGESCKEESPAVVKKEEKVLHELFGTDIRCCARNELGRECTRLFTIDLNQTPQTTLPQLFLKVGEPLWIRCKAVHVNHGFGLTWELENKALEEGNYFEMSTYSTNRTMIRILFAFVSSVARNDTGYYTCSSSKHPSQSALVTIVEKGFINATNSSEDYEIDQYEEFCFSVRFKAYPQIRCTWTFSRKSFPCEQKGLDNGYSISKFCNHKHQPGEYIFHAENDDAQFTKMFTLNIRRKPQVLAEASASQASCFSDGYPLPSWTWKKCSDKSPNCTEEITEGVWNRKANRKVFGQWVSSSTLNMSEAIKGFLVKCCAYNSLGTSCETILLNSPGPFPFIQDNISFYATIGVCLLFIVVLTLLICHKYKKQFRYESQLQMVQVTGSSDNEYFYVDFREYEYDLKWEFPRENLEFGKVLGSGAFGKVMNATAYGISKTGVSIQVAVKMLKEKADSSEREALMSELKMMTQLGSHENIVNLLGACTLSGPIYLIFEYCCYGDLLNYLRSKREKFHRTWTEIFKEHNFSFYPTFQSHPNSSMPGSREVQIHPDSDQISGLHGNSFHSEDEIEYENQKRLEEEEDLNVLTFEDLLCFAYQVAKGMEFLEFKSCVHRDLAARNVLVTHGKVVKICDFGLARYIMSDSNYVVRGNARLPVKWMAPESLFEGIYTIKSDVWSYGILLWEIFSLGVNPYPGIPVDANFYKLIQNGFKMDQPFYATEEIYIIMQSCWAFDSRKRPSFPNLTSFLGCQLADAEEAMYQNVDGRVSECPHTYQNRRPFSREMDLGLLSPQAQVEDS
Protocol: (§1) The kinase assay was conducted using KINOMEscan™.
(§2) Kinase-tagged T7 phage strains were grown in parallel in 24-well blocks in an E. coli host derived from the BL21 strain. E. coli were grown to log-phase and infected with T7 phage from a frozen stock (multiplicity of infection=0.4) and incubated with shaking at 32° C. until lysis (90-150 minutes). The lysates were centrifuged (6,000×g) and filtered (0.2 μm) to remove cell debris. The remaining kinases were produced in HEK-293 cells and subsequently tagged with DNA for qPCR detection. Streptavidin-coated magnetic beads were treated with biotinylated small molecule ligands for 30 minutes at room temperature to generate affinity resins for kinase assays. The liganded beads were blocked with excess biotin and washed with blocking buffer (SeaBlock (Pierce), 1% BSA, 0.05% Tween 20, 1 mM DTT) to remove unbound ligand and to reduce non-specific phage binding. Binding reactions were assembled by combining kinases, liganded affinity beads, and test compound (Compound 23) in 1× binding buffer (20% SeaBlock, 0.17×PBS, 0.05% Tween 20, 6 mM DTT). Test compound were prepared as 40× stocks in 100% DMSO and directly diluted into the assay. All reactions were performed in polypropylene 384-well plates in a final volume of 0.04 ml. […] The kinase concentration in the eluates was measured by qPCR. […]

FLT3 (D835H) = target: T2, FLT3 (D835H) (Homo sapiens, UniProt P36888, D835H); experiment: KINOMEscan kinase binding assay, FLT3 (D835H)
T2 construct: host or cells: T7 phage in E. coli (BL21-derived) or HEK-293
T2 sequence (P36888 27-993 D835H): T1 sequence (P36888 27-993 D835Y) with Y809H
Protocol: as §1, §2

For Cc1ccc(C(=O)Nc2ccc(CN3CCN(C)CC3)c(C(F)(F)F)c2)cc1C#Cc1cnc2[nH]ncc2c1 [Compound 23, 3-(2-(1H-pyrazolo[3,4-b]pyridin-5-yl)ethynyl)-4-methyl-N-(4-((4-methylpiperazin-1-yl)methyl)-3-(trifluoromethyl)phenyl)benzamide], the “% Ctrl@10 nM” value (FLT3 (D835Y); 10 nM) was 42 % Ctrl, the “% Ctrl@100 nM” value (FLT3 (D835Y); 100 nM) was 17 % Ctrl and the “% Ctrl@10 nM” value (FLT3 (D835H); 10 nM) was 18 % Ctrl. For the same compound, the “% Ctrl@100 nM” value (FLT3 (D835H); 100 nM) was 2.2 % Ctrl.
